Common to all, as to type: in vivo
Series [1] relates to Phaedon cochleariae. The experiment in a line: Phaedon cochleariae spray test. To be noted: for mortality at 500 g/ha: Phaedon cochleariae, in Brassica rapa, foliar, 168 h, read-out: mortality in %. As for the experimental part: Phaedon cochleariae—Spray Test
(§1) To produce a suitable preparation of active compound, 1 part by weight of active compound is mixed with the stated amount of solvents and is diluted with water, containing an emulsifier concentration of 1000 ppm, to the desired concentration. Further test concentrations are prepared by dilution with emulsifier containing water.
Chinese cabbage (Brassica pekinensis) leaf disks are sprayed with a preparation of the active ingredient of the desired concentration. Once dry, the leaf disks are infested with mustard beetle larvae (Phaedon cochleariae).
After 7 days mortality in % is determined. 100% means all beetle larvae have been killed and 0% means none of the beetle larvae have been killed.

In series [2] the test system is Tetranychus urticae. The series can be described thus: Tetranychus urticae spray test OP-resistant. Particulars: foliar, 144 h, after 6 days, French bean leaf disks. As for the experimental part:
Tetranychus urticae—Spray Test OP-Resistant
as §1
French bean (Phaseolus vulgaris) leaf disks infected with all instars of the two spotted spidermite (Tetranychus urticae), are sprayed with a preparation of the active ingredient of the desired concentration.
After 6 days mortality in % is determined. 100% means all spider mites have been killed and 0% means none of the spider mites have been killed.

In series [3] the test system is Meloidogyne incognita. The series can be described thus: Meloidogyne incognita test. To be noted: 20 ppm; after 14 days; salad seedlings, eggs and larvae. The method, then: Meloidogyne incognita—Test
To produce a suitable preparation of active compound, 1 part by weight of active compound is mixed with the stated amount of solvent, and the concentrate is diluted with water to the desired concentration.
Vessels are filled with sand, a solution of the active ingredient, a suspension containing eggs and larvae of the southern root-knot nematode (Meloidogyne incognita) and salad seeds. The salad seeds germinate and the seedlings grow. Galls develop in the roots.
After 14 days the nematicidal activity is determined on the basis of the percentage of gall formation. 100% means no galls were found and 0% means the number of galls found on the roots of the treated plants was equal to that in untreated control plants.

Series [4] relates to Spodoptera frugiperda. The experiment in a line: Spodoptera frugiperda spray test. To be noted: 168 h, after 7 days, maize leaf sections, larvae. As for the experimental part: Spodoptera frugiperda—Spray Test
as §1
Maize (Zea mays) leaf sections are sprayed with a preparation of the active ingredient of the desired concentration. Once dry, the leaf sections are infested with fall armyworm larvae (Spodoptera frugiperda).
After 7 days mortality in % is determined. 100% means all caterpillars have been killed and 0% means none of the caterpillars have been killed.

The test system of series [5] is Nezara viridula. The experiment in a line: Nezara viridula spray test (barley plants, mortality). To be noted: for mortality at 20 g/ha / mortality at 100 g/ha / mortality at 500 g/ha: Nezara viridula, 96 h, read-out: mortality in %. As for the experimental part:
(§2) Nezara viridula—Spray Test
To produce a suitable preparation of active compound, 1 part by weight of active compound is mixed with the stated amount of solvent, and the concentrate is diluted with water, containing an emulsifier concentration of 1000 ppm, to the desired concentration Ammonium salt and/or penetration enhancer in a dosage of 1000 ppm are added to the desired concentration if necessary.
Barley plants (Hordeum vulgare) infested with larvae of the southern green stink bug (Nezara viridula) are sprayed with a test solution containing the desired concentration of the active ingredient.
After 4 days, mortality in % is determined. 100% means all the stink bugs have been killed; 0% means none of the stink bugs have been killed.

The subject of series [6] is Nilaparvata lugens. The experiment in a line: Nilaparvata lugens spray test. To be noted: 96 h, after 4 days, rice plants, larvae. As for the experimental part:
Nilaparvata lugens—Spray Test
To produce a suitable preparation of active compound, 1 part by weight of active compound is mixed with the stated amount of solvents and is diluted with water, containing an emulsifier concentration of 1000 ppm, to the desired concentration. Further test concentrations are prepared by dilution with emulsifier containing water. Ammonium salt and/or penetration enhancer in a dosage of 1000 ppm are added to the desired concentration if necessary.
Rice plants (Oryza sativa) are treated by being sprayed with the desired concentration of the active compound and are infested with larvae of the brown planthopper (Nilaparvata lugens).
After 4 days mortality in % is determined. 100% means all planthoppers have been killed and 0% means none of the planthoppers have been killed.

Series [7] deals with Euschistus heros. The experiment in a line: Euschistus heros spray test (feeding control). Particulars: 100 ppm; after 3 days; kidney bean plants, larvae. The method, then: Euschistus heros—Spray Test
(§3) To produce a suitable preparation of active compound, 1 part by weight of active compound is mixed with the stated amount of solvent and is diluted with water to the desired concentration. Further test concentrations are prepared by dilution with water Ammonium salt and/or penetration enhancer (rapeseed oil methyl esters) in a dosage of 1000 ppm are added to the desired concentration if necessary.
Kidney bean plants (Phaseolus vulgaris) are treated by being sprayed with the preparation of the active compound of the desired concentration and are infested with 10 larvae per plant of the brown stink bug (Euschistus heros).
(§4) After 3 days feeding control in % is determined. 100% means there is no feeding damage visible and 0% means the plant damage corresponds to that of the untreated control plants.

The test system of series [8] is Diabrotica balteata. The series can be described thus: Diabrotica balteata spray test. Particulars: 160 μg/well; after 7 days; wheat seeds, larvae of banded cucumber beetle. The method, then: Diabrotica balteata-Spray Test
To produce a suitable preparation of active compound, 1 part by weight of active compound is mixed with the stated amount of solvent, and the concentrate is diluted with water, containing an emulsifier concentration of 1000 ppm, to the desired concentration. Further test concentrations are prepared by dilution with emulsifier containing water.
Soaked wheat seeds (Triticum aestivum) are placed in a multiple well plate filled with agar and some water and are incubated for 1 day to germinate (5 seeds per well). The germinated wheat seeds are sprayed with a test solution containing the desired concentration of the active ingredient. Afterwards each unit is infected with 10-20 larvae of the banded cucumber beetle (Diabrotica balteata).
After 7 days efficacy in % is determined. 100% means all the seedlings have grown up like in the untreated, uninfected control; 0% means none of the seedlings have grown.

Series [9] concerns Nezara viridula. The experiment in a line: Nezara viridula spray test (cotton plants, feeding control). To be noted: 100 ppm, after 3 days, larvae. As for the experimental part: as §2, §3
Cotton plants (Gossypium hirsutum) are treated by being sprayed with the preparation of the active compound of the desired concentration and are infested with 10 larvae per plant of the green plant bug (Nezara viridula).
as §4

As usually defined, the mortality is the share of the test organisms that died.

With `O=C(Nc1nc(-c2c(F)cc(C(F)(F)F)cc2F)ns1)c1cccnc1C(F)(F)F` [Compound I-1-1], the mortality at 500 g/ha in [1] came to 100%; in series [2], 90%.

In the case of `O=C(Nc1nc(-c2c(F)ccc(C(F)(F)F)c2F)ns1)c1cccnc1C(F)(F)F` [Compound I-1-2, N-{3-[2,6-difluoro-3-(trifluoromethyl)phenyl]-1,2,4-thiadiazol-5-yl}-2-(trifluoromethyl)nicotinamide], in series [3], the “nematicidal activity (% reduction of galls vs untreated control)” value is 90%. Besides, the mortality at 500 g/ha was 100% in series [1]; ≥ 83% in [4]; 90% in [2]; 100% in series [5]; ≥ 90% in series [6]. Also, in series [5], the mortality at 20 g/ha was determined as 100%. For the same compound, the mortality at 100 g/ha in series [5] is 100%. The “feeding control in %” value in series [7] turned out to be 85%.

As for `O=C(Nc1nc(-c2c(F)ccc(C(F)(F)F)c2F)ns1)c1ccccc1C(F)(F)F` [Compound I-1-3, N-{3-[2,6-difluoro-3-(trifluoromethyl)phenyl]-1,2,4-thiadiazol-5-yl}-2-(trifluoromethyl)benzamide], the mortality at 500 g/ha in [1] and in [5] was 100% each time. For the same compound, in series [5], the mortality at 100 g/ha was determined as 100%.

Regarding `O=C(Nc1nc(-c2c(F)ccc(Cl)c2F)ns1)c1cccnc1C(F)(F)F` [Compound I-1-6, N-[3-(3-chloro-2,6-difluorophenyl)-1,2,4-thiadiazol-5-yl]-2-(trifluoromethyl)nicotinamide], the mortality at 500 g/ha in [1] was 100%; in series [4] it was ≥ 83%; in [2] it was 90%; in [5], 100%. For the same compound, the mortality at 20 g/ha in series [5] came to 100%. Besides, the mortality at 100 g/ha in [5] was 100%.

With `O=C(Nc1nc(-c2cc(F)cc(F)c2F)ns1)c1ccccc1Cl` [Compound I-1-21], in series [5] (500 g/ha, after 4 days, barley plants, larvae), the mortality in % is given as 80%.

Regarding `O=C(Nc1nc(-c2c(F)ccc(F)c2F)ns1)c1cccnc1C(F)(F)F` [Compound I-1-24], the efficacy in % in series [8] was determined as 100%. Further, the “nematicidal activity (% reduction of galls vs untreated control)” value in series [3] is listed as 90%.

Turning to `O=C(Nc1nc(-c2c(F)ccc(F)c2F)ns1)c1cccnc1C(F)F` [Compound I-1-27], in series [9], the “feeding control in %” value is recorded as 100%.

As to `O=C(Nc1nc(-c2c(F)ccc(F)c2F)ns1)c1ccccc1Cl` [Compound I-1-30], the efficacy in % in [8] was determined as 100%. Besides, the “nematicidal activity (% reduction of galls vs untreated control)” value in series [3] is 90%.

As to `O=C(Nc1nc(-c2c(F)c(F)cc(F)c2F)ns1)c1cccnc1C(F)(F)F` [Compound I-1-33], the efficacy in % in series [8] was determined as 100%. For the same compound, the “nematicidal activity (% reduction of galls vs untreated control)” value in series [3] is recorded as 90%. Further, the “feeding control in %” value in [7] and in series [9] was 100% throughout.

Consider `O=C(Nc1nc(-c2c(F)c(F)cc(F)c2F)ns1)c1ccccc1C(F)(F)F` [Compound I-1-34], for which the efficacy in % in series [8] is reported as 100%.

As for `O=C(Nc1nc(-c2c(F)c(F)cc(F)c2F)ns1)c1nccnc1C(F)(F)F` [Compound I-1-35], in series [3], the “nematicidal activity (% reduction of galls vs untreated control)” value worked out at 90%.

Take `O=C(Nc1nc(-c2cc(Cl)cc(F)c2F)ns1)c1c(F)cccc1F` [Compound I-1-46]: in [1] (500 g/ha, after 7 days, Chinese cabbage leaf disks, larvae), the mortality in % is listed as 83%.

With `O=C(Nc1nc(-c2c(F)ccc(Br)c2F)ns1)c1cccnc1C(F)(F)F` [Compound I-1-51, N-[3-(3-bromo-2,6-difluorophenyl)-1,2,4-thiadiazol-5-yl]-2-(trifluoromethyl)nicotinamide], the efficacy in % in series [8] was determined as 100%. Moreover, the mortality at 500 g/ha in [1] was 100%; in [4] it was ≥ 83%; in [2], 90%; in series [5], 100%. Further, the mortality at 20 g/ha in series [5] was determined as 100%. The mortality at 100 g/ha in series [5] worked out at 100%. Moreover, the “feeding control in %” value in [9] came out at 100%.

`Cc1ccc(F)c(-c2nsc(NC(=O)c3cccnc3C(F)(F)F)n2)c1F` [Compound I-1-52, N-[3-(2,6-difluoro-3-methylphenyl)-1,2,4-thiadiazol-5-yl]-2-(trifluoromethyl)nicotinamide]: the mortality at 500 g/ha in [1] and in series [5] was 100% throughout. Further, in series [5], the mortality at 100 g/ha was 100%.
